Here are results for 11 compounds from publication PMC8991199, “Promiscuity mapping of the S100 protein family using a high-throughput holdup assay” (Scientific Reports, 2022).

Common to all, as to assay type: binding
One assay has as its target T1, S100G (Homo sapiens, UniProt P29377).
T1 sequence (P29377 2-79): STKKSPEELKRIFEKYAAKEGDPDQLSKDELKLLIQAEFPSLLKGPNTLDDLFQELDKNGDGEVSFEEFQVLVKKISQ
Description: direct fluorescence polarization (FP), S100G. Particulars: 50 nM labeled foldamer, 20 mM HEPES pH 7.5, 150 mM NaCl, 1 mM CaCl2, 0.5 mM TCEP, 0.01% Tween20, quadratic fit, mean ± SEM, three technical repeats, threshold 1 mM. On the procedure:
(§1) HTP (and also low-throughput) measurements generally need to be validated by an orthogonal approach to eliminate experimental artifacts. […] This way, we chose WL, IF, WW, YF, IL, VL, TW, RF, RR, TI, TM, and after resynthesizing with a fluorescent label at the C-terminus (Figs. S15–S26, Table S1), the S100ome was tested against the labeled foldamers by direct fluorescence polarization (FP) (Fig. 3A). In this assay, the association of the fluorescently labeled foldamer and the S100 protein of interest is monitored, through the change in polarization of the emitted light by the fluorophore upon the binding event. In direct FP, the presence of the fluorophore might change the binding affinity of some foldamers. […] Nevertheless, we assumed that the fluorophore would affect all foldamers that target the same binding site to the same degree, because the foldamer scaffold is rigid. Defining the threshold of detection at the dissociation constant of 1 mM, we identified 87 interactions between the selected foldamer fragments and the S100ome out of 220 possible interactions (Table 1, Fig. S4-14).
(§2) Briefly, S100 proteins were cloned into a modified pET15b vector with a TEV protease cleavable N-terminal His6-tag and expressed in Escherichia coli BL21 (DE3) cells, followed by Ni^2+-affinity chromatography. For HU assay, S100 proteins were further purified by either hydrophobic interaction chromatography or ion exchange chromatography without the cleavage of the N-terminal His6-tag applying standard conditions. For direct FP measurements, the N-terminal His6-tag was cleaved, and the S100 proteins were purified by hydrophobic interaction chromatography, ion exchange chromatography or size exclusion chromatography. The quality of the recombinant proteins was checked by SDS-PAGE analysis in all cases. The concentration of the recombinant S100 proteins was determined by UV spectrophotometry using the absorbance of Tyr and Trp residues.
(§3) In direct fluorescence polarization assays, S100 proteins were diluted in a buffer containing 50 nM labeled foldamer, 20 mM HEPES pH 7.5, 150 mM NaCl, 1 mM CaCl2, 0.5 mM TCEP and 0.01% Tween20. The dilution series (50 µl) were divided into three technical repeats and transferred (15 µl) to a 384-well microplate. In competitive fluorescence polarization assays, the buffer applied in direct measurements was supplemented with the S100 protein of interest to reach a saturation of 60–80%. This mixture was titrated with the competitor (i.e. the unlabeled peptide). Fluorescence polarization was measured in 8 different S100 concentrations (one of which contained no S100 protein) on a Synergy H4 plate reader using 485 ± 20 nm and 528 ± 20 nm band-pass filters for excitation and emission, respectively. The Kd values were obtained by fitting the data from the FP measurements with the python-based ProFit software using quadratic and competitive binding equation for direct and competitive FP, respectively. The detection threshold was based on two parameters. First, we rejected all fitted dissociation constants above 1 mM.
In general terms: Fluorescence polarisation rises when a labelled molecule tumbles more slowly, as on binding a larger partner.

The target of another assay is T2, S100A7 (Homo sapiens, UniProt P31151).
T2 sequence (P31151 1-101): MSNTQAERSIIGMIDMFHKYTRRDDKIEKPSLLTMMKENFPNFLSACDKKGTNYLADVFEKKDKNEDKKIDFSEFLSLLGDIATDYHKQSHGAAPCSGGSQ
Description: direct fluorescence polarization (FP), S100A7. Particulars: S100A7, 50 nM labeled foldamer, 20 mM HEPES pH 7.5, 150 mM NaCl, 1 mM CaCl2, 0.5 mM TCEP, 0.01% Tween20, quadratic fit, mean ± SEM, three technical repeats, threshold 1 mM. On the procedure: as §1, §2, §3

For the next assay, the target named is S100A10 (Homo sapiens, UniProt P60903). Description: direct fluorescence polarization (FP), S100A10. Particulars: S100A10, 50 nM labeled foldamer, 20 mM HEPES pH 7.5, 150 mM NaCl, 1 mM CaCl2, 0.5 mM TCEP, 0.01% Tween20, quadratic fit, mean ± SEM, three technical repeats, threshold 1 mM.
Sequence of S100A10 (P60903 whole entry): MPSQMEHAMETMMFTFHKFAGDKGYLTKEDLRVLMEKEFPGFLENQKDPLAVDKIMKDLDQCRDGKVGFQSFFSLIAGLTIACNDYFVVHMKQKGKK
Excerpt: (§4) HTP (and also low-throughput) measurements generally need to be validated by an orthogonal approach to eliminate experimental artifacts. […] In this assay, the association of the fluorescently labeled foldamer and the S100 protein of interest is monitored, through the change in polarization of the emitted light by the fluorophore upon the binding event. In direct FP, the presence of the fluorophore might change the binding affinity of some foldamers. […] Nevertheless, we assumed that the fluorophore would affect all foldamers that target the same binding site to the same degree, because the foldamer scaffold is rigid.
as §2, §3

A further assay addresses S100A2 (Homo sapiens, UniProt P29034). In words: direct fluorescence polarization (FP), S100A2. Particulars: S100A2, 50 nM labeled foldamer, 20 mM HEPES pH 7.5, 150 mM NaCl, 1 mM CaCl2, 0.5 mM TCEP, 0.01% Tween20, quadratic fit, mean ± SEM, three technical repeats, threshold 1 mM.
Excerpt: as §4, §2, §3

The target of the next assay is S100A4 (Homo sapiens, UniProt P26447). In words: direct fluorescence polarization (FP), S100A4. Particulars: S100A4, 50 nM labeled foldamer, 20 mM HEPES pH 7.5, 150 mM NaCl, 1 mM CaCl2, 0.5 mM TCEP, 0.01% Tween20, quadratic fit, mean ± SEM, three technical repeats, threshold 1 mM.
Sequence of S100A4 (P26447 whole entry): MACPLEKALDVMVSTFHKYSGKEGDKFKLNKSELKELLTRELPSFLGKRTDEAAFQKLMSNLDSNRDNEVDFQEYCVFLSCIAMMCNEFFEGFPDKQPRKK
Excerpt: as §4, §2, §3

The target in the next assay is T3, S100A16 (Homo sapiens, UniProt Q96FQ6).
T3 sequence (Q96FQ6 1-103): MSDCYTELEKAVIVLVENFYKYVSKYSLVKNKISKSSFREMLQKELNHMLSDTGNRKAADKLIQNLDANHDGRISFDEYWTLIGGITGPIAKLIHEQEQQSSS
Description: direct fluorescence polarization (FP), S100A16. Particulars: S100A16, 50 nM labeled foldamer, 20 mM HEPES pH 7.5, 150 mM NaCl, 1 mM CaCl2, 0.5 mM TCEP, 0.01% Tween20, quadratic fit, mean ± SEM, three technical repeats, threshold 1 mM. Here is the method: as §1, §2, §3

Sequence of S100A2 (P29034 whole entry): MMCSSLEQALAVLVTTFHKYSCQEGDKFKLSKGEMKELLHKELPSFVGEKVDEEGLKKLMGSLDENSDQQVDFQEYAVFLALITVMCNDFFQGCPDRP

What is called Kd is the free concentration of one partner at which half of the binding sites on the other are occupied at equilibrium, for simple one-to-one binding. With `N=C(N)NCCC[C@@H](CC(=O)N[C@H]1CCCC[C@@H]1C(=O)NCC(=O)N[C@@H](CCCCNC(=O)c1ccc2c(c1)C1(OC2=O)c2ccc(O)cc2Oc2cc(O)ccc21)C(N)=O)NC(=O)[C@H]1CCCC[C@@H]1NC(=O)[C@H]1CCCC[C@@H]1NC(=O)C[C@H](CCCNC(=N)N)NC(=O)[C@H]1CCCC[C@@H]1N` [fRR], the Kd at S100G was more than 1000 µM; on S100A7 it was more than 1000 µM; at S100A10, more than 1000 µM; at S100A2, 61 ± 5.5 µM; on S100A4, more than 1000 µM; at S100A16, more than 1000 µM.
Regarding `N=C(N)NCCC[C@@H](CC(=O)N[C@H]1CCCC[C@@H]1C(=O)N[C@H]1CCCC[C@@H]1C(=O)N[C@H](CC(=O)N[C@H]1CCCC[C@@H]1C(=O)NCC(=O)N[C@@H](CCCCNC(=O)c1ccc2c(c1)C1(OC2=O)c2ccc(O)cc2Oc2cc(O)ccc21)C(N)=O)Cc1ccccc1)NC(=O)[C@H]1CCCC[C@@H]1N` [fRF], the Kd at S100G was more than 1000 µM; on S100A7, more than 1000 µM; on S100A10 it was 320 ± 19 µM; at S100A2, 340 ± 21 µM; at S100A4, 460 ± 23 µM; at S100A16, more than 1000 µM.
As for `NC(=O)[C@H](CCCCNC(=O)c1ccc2c(c1)C1(OC2=O)c2ccc(O)cc2Oc2cc(O)ccc21)NC(=O)CNC(=O)[C@H]1CCCC[C@@H]1NC(=O)C[C@H](Cc1c[nH]c2ccccc12)NC(=O)[C@H]1CCCC[C@@H]1NC(=O)[C@H]1CCCC[C@@H]1NC(=O)C[C@H](Cc1c[nH]c2ccccc12)NC(=O)[C@H]1CCCC[C@@H]1N` [fWW], the Kd at S100G was more than 1000 µM; at S100A7 it was more than 1000 µM; on S100A10, 150 ± 5.2 µM; on S100A2, 65 ± 1.2 µM; at S100A16 it was more than 1000 µM.
For the compound `CC(C)C[C@@H](CC(=O)N[C@H]1CCCC[C@@H]1C(=O)NCC(=O)N[C@@H](CCCCNC(=O)c1ccc2c(c1)C1(OC2=O)c2ccc(O)cc2Oc2cc(O)ccc21)C(N)=O)NC(=O)[C@H]1CCCC[C@@H]1NC(=O)[C@H]1CCCC[C@@H]1NC(=O)C[C@H](Cc1c[nH]c2ccccc12)NC(=O)[C@H]1CCCC[C@@H]1N` [fWL], the Kd is more than 1000 µM at S100G; 23 ± 1.5 µM at S100A7; 23 ± 0.7 µM at S100A10; 11 ± 0.39 µM on S100A2; 46 ± 1.6 µM at S100A4; 304 ± 131 µM at S100A16.
`CSCC[C@@H](CC(=O)N[C@H]1CCCC[C@@H]1C(=O)NCC(=O)N[C@@H](CCCCNC(=O)c1ccc2c(c1)C1(OC2=O)c2ccc(O)cc2Oc2cc(O)ccc21)C(N)=O)NC(=O)[C@H]1CCCC[C@@H]1NC(=O)[C@H]1CCCC[C@@H]1NC(=O)C[C@@H](NC(=O)[C@H]1CCCC[C@@H]1N)[C@@H](C)O` [fTM]: the Kd at S100G, on S100A7, on S100A10, at S100A2, on S100A4 and at S100A16 was more than 1000 µM throughout.
Regarding `CC[C@H](C)[C@@H](CC(=O)N[C@H]1CCCC[C@@H]1C(=O)N[C@H]1CCCC[C@@H]1C(=O)N[C@H](CC(=O)N[C@H]1CCCC[C@@H]1C(=O)NCC(=O)N[C@@H](CCCCNC(=O)c1ccc2c(c1)C1(OC2=O)c2ccc(O)cc2Oc2cc(O)ccc21)C(N)=O)Cc1ccccc1)NC(=O)[C@H]1CCCC[C@@H]1N` [fIF], the Kd at S100G was more than 1000 µM; at S100A7, more than 1000 µM; on S100A10, 97 ± 2.5 µM; at S100A2, 38 ± 1.5 µM; at S100A4 it was 93 ± 2.4 µM; on S100A16, more than 1000 µM.
On to `NC(=O)[C@H](CCCCNC(=O)c1ccc2c(c1)C1(OC2=O)c2ccc(O)cc2Oc2cc(O)ccc21)NC(=O)CNC(=O)[C@H]1CCCC[C@@H]1NC(=O)C[C@H](Cc1ccccc1)NC(=O)[C@H]1CCCC[C@@H]1NC(=O)[C@H]1CCCC[C@@H]1NC(=O)C[C@H](Cc1ccc(O)cc1)NC(=O)[C@H]1CCCC[C@@H]1N` [fYF], for which the Kd at S100G was more than 1000 µM; on S100A7 it was more than 1000 µM; at S100A10, 70 ± 3.5 µM; on S100A2, 26 ± 2.1 µM; at S100A4 it was 113 ± 5.2 µM; on S100A16 it was more than 1000 µM.
On to `CC[C@H](C)[C@@H](CC(=O)N[C@H]1CCCC[C@@H]1C(=O)NCC(=O)N[C@@H](CCCCNC(=O)c1ccc2c(c1)C1(OC2=O)c2ccc(O)cc2Oc2cc(O)ccc21)C(N)=O)NC(=O)[C@H]1CCCC[C@@H]1NC(=O)[C@H]1CCCC[C@@H]1NC(=O)C[C@@H](NC(=O)[C@H]1CCCC[C@@H]1N)[C@@H](C)O` [fTI], for which the Kd at S100G, at S100A7, at S100A10, at S100A2, at S100A4 and at S100A16 was more than 1000 µM in each case.
`C[C@@H](O)[C@@H](CC(=O)N[C@H]1CCCC[C@@H]1C(=O)N[C@H]1CCCC[C@@H]1C(=O)N[C@H](CC(=O)N[C@H]1CCCC[C@@H]1C(=O)NCC(=O)N[C@@H](CCCCNC(=O)c1ccc2c(c1)C1(OC2=O)c2ccc(O)cc2Oc2cc(O)ccc21)C(N)=O)Cc1c[nH]c2ccccc12)NC(=O)[C@H]1CCCC[C@@H]1N` [fTW]: the Kd at S100G is more than 1000 µM; on S100A7, more than 1000 µM; at S100A4 it was 180 ± 46 µM; on S100A16 it was more than 1000 µM.
Consider `CC[C@H](C)[C@@H](CC(=O)N[C@H]1CCCC[C@@H]1C(=O)N[C@H]1CCCC[C@@H]1C(=O)N[C@H](CC(=O)N[C@H]1CCCC[C@@H]1C(=O)NCC(=O)N[C@@H](CCCCNC(=O)c1ccc2c(c1)C1(OC2=O)c2ccc(O)cc2Oc2cc(O)ccc21)C(N)=O)CC(C)C)NC(=O)[C@H]1CCCC[C@@H]1N` [fIL], for which the Kd is more than 1000 µM at S100G; more than 1000 µM on S100A7; 72 ± 1.6 µM on S100A10; 78 ± 8.7 µM at S100A2; 150 ± 4.8 µM on S100A4; more than 1000 µM on S100A16.
With `CC(C)C[C@@H](CC(=O)N[C@H]1CCCC[C@@H]1C(=O)NCC(=O)N[C@@H](CCCCNC(=O)c1ccc2c(c1)C1(OC2=O)c2ccc(O)cc2Oc2cc(O)ccc21)C(N)=O)NC(=O)[C@H]1CCCC[C@@H]1NC(=O)[C@H]1CCCC[C@@H]1NC(=O)C[C@@H](NC(=O)[C@H]1CCCC[C@@H]1N)C(C)C` [fVL], the Kd was more than 1000 µM at S100G; more than 1000 µM at S100A7; 110 ± 5.5 µM at S100A10; 210 ± 110 µM at S100A2; 210 ± 8.7 µM on S100A4; more than 1000 µM on S100A16.
